From patent publication US9789111B2, “Casein kinase 1δ (CK 1δ) inhibitors” (Electrophoretics Limited, priority 2010, dated 2017)

Experiments:
CK1δ = target: T1, CK1δ (Homo sapiens, UniProt P48730); experiment: CK1δ inhibition assay (33P-ATP, CK1tide substrate); type: biochemical; conditions: range of kinase inhibition assays
T1 construct: Recombinant human full-length construct; GST; host or cells: insect cells
T1 sequence (P48730 1-409 isoform P48730-2): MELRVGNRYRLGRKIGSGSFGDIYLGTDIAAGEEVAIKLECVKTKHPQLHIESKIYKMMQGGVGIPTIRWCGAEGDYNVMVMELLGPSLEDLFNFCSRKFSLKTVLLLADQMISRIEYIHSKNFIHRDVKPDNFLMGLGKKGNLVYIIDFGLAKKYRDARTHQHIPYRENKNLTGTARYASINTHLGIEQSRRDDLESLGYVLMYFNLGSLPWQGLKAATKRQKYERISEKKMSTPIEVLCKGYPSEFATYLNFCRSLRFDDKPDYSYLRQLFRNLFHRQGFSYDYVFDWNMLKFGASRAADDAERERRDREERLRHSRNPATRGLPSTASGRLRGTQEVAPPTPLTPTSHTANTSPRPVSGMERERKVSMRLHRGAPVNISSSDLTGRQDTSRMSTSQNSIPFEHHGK
Experimental: The compounds of the invention may be tested for inhibition of casein kinase 1 delta (CK1δ) in accordance with the assay protocols described in US 2010/0152157, EP 1,636,375 or Hanger et al (2007) J. Biol. Chem. 282, 23645-23654. In particular, the assay was conducted in accordance with the following protocol:
(§1) Base Reaction buffer; 20 mM Hepes (pH 7.5), 10 mM MgCl2, 1 mM EGTA, 0.02% Brij35, 0.02 mg/ml BSA, 0.1 mM Na3VO4, 2 mM DTT, 1% DMSO
(§2) It should be noted that required cofactors are added individually to each kinase reaction.
(§3) • 1. Prepare indicated substrate in freshly prepared Base Reaction Buffer as described above • 2. Deliver any required cofactors to the substrate solution • 3. Deliver indicated kinase into the substrate solution and gently mix • 4. Deliver compounds in DMSO into the kinase reaction mixture • 5. Deliver ^33P-ATP (specific activity 0.01 μCi/μl final) into the reaction mixture to initiate the reaction • 6. Incubate kinase reaction for 120 min. at room temperature • 7. Reactions are spotted onto P81 ion exchange paper (Whatman #3698-915) • 8. Wash filters extensively in 0.75% Phosphoric acid Kinase Information: • CK1δ—Genbank Accession # NP_620693 • Recombinant human full-length construct. GST-tagged, expressed in insect cells. • Final concentration in assay=4 nM • Substrate: CK1tide • Substrate sequence: [KRRRAL[pS]VASLPGL] • Final substrate concentration in assay=20 μM • It should be noted that no additional cofactors are added to the reaction mixture.

ABL2/ARG = ABL2/ARG (Homo sapiens, UniProt P42684); experiment: kinase inhibition assay panel; type: biochemical
Experimental: as §1, §2, §3

CDK5/p25 = CDK5/p25 (Homo sapiens, UniProt Q00535); experiment: kinase inhibition assay panel; type: biochemical
Experimental: as §1, §2, §3

GSK3b = GSK3b (Homo sapiens, UniProt P49841); experiment: kinase inhibition assay panel; type: biochemical
Experimental: as §1, §2, §3

HGK/MAP4K4 = HGK/MAP4K4 (Homo sapiens, UniProt O95819); experiment: kinase inhibition assay panel; type: biochemical
Experimental: as §1, §2, §3

KDR/VEGFR2 = KDR/VEGFR2 (Homo sapiens, UniProt P35968); experiment: kinase inhibition assay panel; type: biochemical
Experimental: as §1, §2, §3

LCK = LCK (Homo sapiens, UniProt P06239); experiment: kinase inhibition assay panel; type: biochemical
Experimental: as §1, §2, §3

MSK1/RPS6KA5 = MSK1/RPS6KA5 (Homo sapiens, UniProt O75582); experiment: kinase inhibition assay panel; type: biochemical
Experimental: as §1, §2, §3

PDK1/PDPK1 = target: T2, PDK1/PDPK1 (Homo sapiens, UniProt O15530); experiment: kinase inhibition assay panel; type: biochemical
T2 sequence (O15530 1-556): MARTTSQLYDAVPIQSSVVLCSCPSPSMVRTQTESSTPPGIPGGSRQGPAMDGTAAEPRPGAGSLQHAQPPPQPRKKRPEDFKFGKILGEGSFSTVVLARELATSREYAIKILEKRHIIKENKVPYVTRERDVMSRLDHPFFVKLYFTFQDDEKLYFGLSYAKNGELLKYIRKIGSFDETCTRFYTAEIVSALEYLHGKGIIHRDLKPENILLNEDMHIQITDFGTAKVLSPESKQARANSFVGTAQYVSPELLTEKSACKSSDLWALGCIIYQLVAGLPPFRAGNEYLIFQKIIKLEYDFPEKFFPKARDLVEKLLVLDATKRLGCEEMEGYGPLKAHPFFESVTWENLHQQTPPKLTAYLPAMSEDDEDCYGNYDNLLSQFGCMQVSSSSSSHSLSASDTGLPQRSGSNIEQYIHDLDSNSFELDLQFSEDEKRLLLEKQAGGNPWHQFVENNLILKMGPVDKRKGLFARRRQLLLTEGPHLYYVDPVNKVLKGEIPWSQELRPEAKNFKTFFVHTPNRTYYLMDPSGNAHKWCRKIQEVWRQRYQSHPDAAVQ
Experimental: as §1, §2, §3

PIM3 = PIM3 (Homo sapiens, UniProt Q86V86); experiment: kinase inhibition assay panel; type: biochemical
Experimental: as §1, §2, §3

PKCa = PKCa (Homo sapiens, UniProt P17252); experiment: kinase inhibition assay panel; type: biochemical
Experimental: as §1, §2, §3

PKCb2 = PKCb2 (Homo sapiens, UniProt P05771); experiment: kinase inhibition assay panel; type: biochemical
Experimental: as §1, §2, §3

ROCK1 = ROCK1 (Homo sapiens, UniProt Q13464); experiment: kinase inhibition assay panel; type: biochemical
Experimental: as §1, §2, §3

c-SRC = c-SRC (Homo sapiens, UniProt P12931); experiment: kinase inhibition assay panel; type: biochemical
Experimental: as §1, §2, §3

CK1g1 = CK1g1 (Homo sapiens, UniProt Q9HCP0); experiment: kinase inhibition assay panel; type: biochemical
CK1g2 = CK1g2 (Homo sapiens, UniProt P78368); experiment: kinase inhibition assay panel; type: biochemical
CLK2 = CLK2 (Homo sapiens, UniProt P49760); experiment: kinase inhibition assay panel; type: biochemical
FGFR1 = FGFR1 (Homo sapiens, UniProt P11362); experiment: kinase inhibition assay panel; type: biochemical
[1] = tested on: Tau phosphorylation at key pathogenic sites in SH-SY5Y-TMHT cells; conditions: SH-SY5Y-TMHT cells exposed to kinase inhibitors; cited from earlier work
SH-SY5Y-TMHT cells = experiment: Cell viability, MTT assay; type: cell-based, human; conditions: 0.5 μM (tested 0.1 μM to 1 μM), 6 h of treatment
Experimental: (§4) SH-SY5Y-TMHT cells are kept in culture medium (DMEM medium, 10% FCS, 1% NEAA, 1% L-Glutamine, 100 μg/ml Gentamycin, 300 μg/ml Geneticin G-418) for 2 days until 80-90% confluency. Cells are then differentiated in culture medium supplemented with 10 μM retinoic acid (RA) for 7 days changing medium every 2 to 3 days. Differentiated cells are seeded onto 6-well plates and 96-well plates at a cell density of 1.25×10^6 and 8×10^5 cells per well, respectively. On day 8 post-differentiation, the test compounds, reference compounds and vehicle control were added to the culture medium. After 6 h of compound exposure one plate of cells is subjected to a MTT assay to evaluate the effect of test and reference items on cell viability. Remaining wells are washed once with cold PBS and harvested in 300 μl RIPA-Buffer [50 mM Tris pH 7.4, 1% Nonident P40, 0.25% Na-deoxy-cholate, 150 mM NaCl, 1 mM EDTA, 1 μM NaF, 1 μM Na-ortho-vanadate, 80 mM Glycerophosphate, supplemented with freshly added protease (Calbiochem) and phosphatase (Sigma) inhibitor cocktail]. The cell suspension is transferred into a 1.5 ml tube and additionally lysed by sonication on ice. An aliquot of 20 μl is taken for the determination of the protein concentration (BCA assay). Subsequently, the lysates are snap frozen and stored at −80° C. until shipment.
To determine compound activity, it is necessary to control for potential cell toxicity of all molecules. Viability of cultures is determined by the MTT assay. This assay allows the measurement of the mitochondrial dehydrogenase activity which reduces yellow MTT to dark blue formazan crystals. Since this reaction is catalyzed in living cells only this assay is used for the determination of cell viability. MTT solution is added to each well in a final concentration of 0.5 mg/ml. After 2 hours, the MTT containing medium is aspired. Cells are lysed in 3% SDS and the formazan crystals are dissolved in isopropanol/HCl. Optical density is measured with a plate-reader at wavelength 570 nm. Cell survival rate is expressed as optical density (OD). Values are calculated as percent of control values.
Cell viability was determined in differentiated SH-SY5Y-TMHT cells by the MTT assay. Test and reference compounds were applied in a concentration range from 0.05 μM to 10 μM and from 0.1 μM to 1 μM, respectively. Upon 6 h of treatment, cell viability was evaluated. […] Statistical significance is indicated by *<0.05, **<0.01, ***<0.001 as determined by One-Way ANOVA. Data are shown from two independent experiments as group mean+/−SEM (n=8). […] Statistical significance is indicated by *<0.05, **<0.01, ***<0.001 as determined by One-Way ANOVA. […] Statistical significance is indicated by *<0.05, **<0.01, ***<0.001 as determined by One-Way ANOVA. […]

[2] = tested on: Tau phosphorylated at Threonine 231 in SH-SY5Y-TMHT cells; experiment: Western Blot of Tau phosphorylated at Threonine 231; type: cell-based, human; conditions: 5 μM, Western Blot
Experimental: as §4
(§5) Lysates of treated cells were prepared in Laemmli buffer and 10 μg loaded into each lane of a 10% Nu-PAGE gel (Invitrogen, UK). Samples were run until the coomassie blue dye fromt was within 1 cm of the bottom of the gel. The separated proteins were transferred onto nitrocellulose and blots developed using antibodies specific for total tau (Polyclonal Rabbit Anti-Human Tau, Dako, UK (cat # A0024)) and phopho-Threonine 231 (Tau (Phospho-Thr231) Antibody, Signalway Antibody, USA (cat # 11110)) respectively. In each case the bound antibody was detected using ECL Rabbit IgG, HRP-Linked (from donkey) (GE Healthcare, UK (cat # NA934))

[3] = tested on: total Tau in SH-SY5Y-TMHT cells; experiment: Western Blot of total Tau; type: cell-based, human; conditions: 5 μM
Experimental: as §4, §5

Chain of CK1g2 (P78368 whole entry, species assumed): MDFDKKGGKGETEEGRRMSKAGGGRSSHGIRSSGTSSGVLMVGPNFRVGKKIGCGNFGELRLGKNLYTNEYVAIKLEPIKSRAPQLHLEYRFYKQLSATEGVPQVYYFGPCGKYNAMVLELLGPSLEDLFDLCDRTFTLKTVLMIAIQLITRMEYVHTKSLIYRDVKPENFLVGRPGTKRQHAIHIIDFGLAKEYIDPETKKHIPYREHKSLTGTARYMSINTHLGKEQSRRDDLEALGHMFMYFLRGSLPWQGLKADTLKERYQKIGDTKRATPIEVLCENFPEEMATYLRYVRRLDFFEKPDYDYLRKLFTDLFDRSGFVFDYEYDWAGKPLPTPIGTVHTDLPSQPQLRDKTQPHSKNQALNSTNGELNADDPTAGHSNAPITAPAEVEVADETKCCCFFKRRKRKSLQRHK
Chain of CDK5/p25 (Q00535 whole entry, species assumed): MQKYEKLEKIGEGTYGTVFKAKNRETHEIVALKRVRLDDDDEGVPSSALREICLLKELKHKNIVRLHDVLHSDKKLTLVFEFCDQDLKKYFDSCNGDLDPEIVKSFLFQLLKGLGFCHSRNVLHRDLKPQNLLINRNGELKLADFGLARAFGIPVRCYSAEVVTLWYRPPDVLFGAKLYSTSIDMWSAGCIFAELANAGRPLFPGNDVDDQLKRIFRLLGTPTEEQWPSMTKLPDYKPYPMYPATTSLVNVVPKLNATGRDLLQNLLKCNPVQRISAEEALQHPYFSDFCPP
Chain of CDK5/p25 (Q15078 99-307 partner limits assumed, species assumed): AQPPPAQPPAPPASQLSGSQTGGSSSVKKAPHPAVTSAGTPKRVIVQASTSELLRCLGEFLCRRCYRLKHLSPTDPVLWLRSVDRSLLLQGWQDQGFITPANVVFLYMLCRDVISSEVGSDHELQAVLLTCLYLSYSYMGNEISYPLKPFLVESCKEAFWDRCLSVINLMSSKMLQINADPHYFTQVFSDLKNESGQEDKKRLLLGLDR
Chain of c-SRC (P12931 whole entry, species assumed): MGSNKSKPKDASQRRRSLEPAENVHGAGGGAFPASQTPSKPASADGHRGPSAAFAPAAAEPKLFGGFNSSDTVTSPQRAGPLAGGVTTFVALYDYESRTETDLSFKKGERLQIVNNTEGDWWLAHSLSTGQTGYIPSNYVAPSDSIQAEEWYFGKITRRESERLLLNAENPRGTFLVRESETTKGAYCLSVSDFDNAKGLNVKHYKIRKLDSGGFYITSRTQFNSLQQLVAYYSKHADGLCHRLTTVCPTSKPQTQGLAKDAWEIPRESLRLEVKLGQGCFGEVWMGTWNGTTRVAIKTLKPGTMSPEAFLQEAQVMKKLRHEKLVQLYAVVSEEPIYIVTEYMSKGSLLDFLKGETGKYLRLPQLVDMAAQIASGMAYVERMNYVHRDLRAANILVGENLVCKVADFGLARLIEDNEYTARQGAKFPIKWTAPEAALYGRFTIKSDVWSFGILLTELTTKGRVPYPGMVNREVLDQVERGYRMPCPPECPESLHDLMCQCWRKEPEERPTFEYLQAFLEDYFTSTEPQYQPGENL
Chain of HGK/MAP4K4 (O95819 whole entry): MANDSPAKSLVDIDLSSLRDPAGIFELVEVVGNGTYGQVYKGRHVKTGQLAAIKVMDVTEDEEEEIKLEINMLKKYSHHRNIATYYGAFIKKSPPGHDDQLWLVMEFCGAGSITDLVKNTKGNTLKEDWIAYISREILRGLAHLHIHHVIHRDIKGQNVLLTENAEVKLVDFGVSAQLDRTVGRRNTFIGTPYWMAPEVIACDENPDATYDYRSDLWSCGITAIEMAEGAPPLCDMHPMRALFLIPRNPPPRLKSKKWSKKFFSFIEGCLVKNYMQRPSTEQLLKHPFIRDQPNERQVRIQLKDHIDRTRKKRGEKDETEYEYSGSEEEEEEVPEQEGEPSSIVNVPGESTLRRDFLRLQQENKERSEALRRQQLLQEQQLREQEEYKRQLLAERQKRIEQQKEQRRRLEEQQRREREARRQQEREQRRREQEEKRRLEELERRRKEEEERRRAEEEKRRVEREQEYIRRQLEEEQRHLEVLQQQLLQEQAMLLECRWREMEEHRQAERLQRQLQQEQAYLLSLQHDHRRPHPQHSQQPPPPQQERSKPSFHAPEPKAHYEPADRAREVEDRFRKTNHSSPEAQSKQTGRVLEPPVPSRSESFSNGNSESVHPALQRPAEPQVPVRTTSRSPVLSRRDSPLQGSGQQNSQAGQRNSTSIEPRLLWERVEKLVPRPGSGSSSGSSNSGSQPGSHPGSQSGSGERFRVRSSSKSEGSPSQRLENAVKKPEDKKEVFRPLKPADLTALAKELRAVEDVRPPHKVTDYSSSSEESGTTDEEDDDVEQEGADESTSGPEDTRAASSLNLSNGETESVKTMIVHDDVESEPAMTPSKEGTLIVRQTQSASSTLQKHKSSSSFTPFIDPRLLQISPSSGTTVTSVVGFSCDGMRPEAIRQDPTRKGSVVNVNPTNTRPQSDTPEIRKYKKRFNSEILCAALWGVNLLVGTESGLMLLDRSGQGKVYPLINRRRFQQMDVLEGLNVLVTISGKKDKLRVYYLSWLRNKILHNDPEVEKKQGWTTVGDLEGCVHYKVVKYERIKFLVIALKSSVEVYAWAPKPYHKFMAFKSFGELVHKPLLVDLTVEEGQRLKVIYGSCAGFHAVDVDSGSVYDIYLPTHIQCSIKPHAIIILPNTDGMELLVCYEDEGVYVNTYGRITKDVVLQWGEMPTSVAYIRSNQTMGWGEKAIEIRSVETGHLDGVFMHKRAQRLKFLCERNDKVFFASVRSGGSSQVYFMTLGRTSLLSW
Chain of MSK1/RPS6KA5 (O75582 whole entry): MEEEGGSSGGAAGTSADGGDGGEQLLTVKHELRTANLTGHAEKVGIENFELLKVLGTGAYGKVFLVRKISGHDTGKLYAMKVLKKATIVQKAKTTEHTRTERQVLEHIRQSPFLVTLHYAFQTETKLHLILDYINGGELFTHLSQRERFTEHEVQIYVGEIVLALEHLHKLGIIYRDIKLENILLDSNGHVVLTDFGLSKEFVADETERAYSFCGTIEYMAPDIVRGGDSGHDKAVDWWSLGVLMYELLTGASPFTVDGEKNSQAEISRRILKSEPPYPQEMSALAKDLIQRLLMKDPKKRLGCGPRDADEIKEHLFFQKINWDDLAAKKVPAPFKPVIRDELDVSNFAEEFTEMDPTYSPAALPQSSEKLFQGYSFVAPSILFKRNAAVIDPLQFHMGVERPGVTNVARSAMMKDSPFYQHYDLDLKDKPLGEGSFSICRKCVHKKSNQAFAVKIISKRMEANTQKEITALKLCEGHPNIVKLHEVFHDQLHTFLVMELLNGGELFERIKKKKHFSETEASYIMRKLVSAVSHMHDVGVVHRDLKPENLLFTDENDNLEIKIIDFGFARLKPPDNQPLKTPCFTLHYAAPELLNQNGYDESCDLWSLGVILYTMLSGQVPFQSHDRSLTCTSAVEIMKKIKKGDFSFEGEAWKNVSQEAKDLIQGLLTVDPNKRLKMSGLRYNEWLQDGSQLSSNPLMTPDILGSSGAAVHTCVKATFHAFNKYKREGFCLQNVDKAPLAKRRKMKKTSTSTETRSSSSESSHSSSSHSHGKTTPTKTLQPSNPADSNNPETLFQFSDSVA
Chain of ABL2/ARG (P42684 whole entry): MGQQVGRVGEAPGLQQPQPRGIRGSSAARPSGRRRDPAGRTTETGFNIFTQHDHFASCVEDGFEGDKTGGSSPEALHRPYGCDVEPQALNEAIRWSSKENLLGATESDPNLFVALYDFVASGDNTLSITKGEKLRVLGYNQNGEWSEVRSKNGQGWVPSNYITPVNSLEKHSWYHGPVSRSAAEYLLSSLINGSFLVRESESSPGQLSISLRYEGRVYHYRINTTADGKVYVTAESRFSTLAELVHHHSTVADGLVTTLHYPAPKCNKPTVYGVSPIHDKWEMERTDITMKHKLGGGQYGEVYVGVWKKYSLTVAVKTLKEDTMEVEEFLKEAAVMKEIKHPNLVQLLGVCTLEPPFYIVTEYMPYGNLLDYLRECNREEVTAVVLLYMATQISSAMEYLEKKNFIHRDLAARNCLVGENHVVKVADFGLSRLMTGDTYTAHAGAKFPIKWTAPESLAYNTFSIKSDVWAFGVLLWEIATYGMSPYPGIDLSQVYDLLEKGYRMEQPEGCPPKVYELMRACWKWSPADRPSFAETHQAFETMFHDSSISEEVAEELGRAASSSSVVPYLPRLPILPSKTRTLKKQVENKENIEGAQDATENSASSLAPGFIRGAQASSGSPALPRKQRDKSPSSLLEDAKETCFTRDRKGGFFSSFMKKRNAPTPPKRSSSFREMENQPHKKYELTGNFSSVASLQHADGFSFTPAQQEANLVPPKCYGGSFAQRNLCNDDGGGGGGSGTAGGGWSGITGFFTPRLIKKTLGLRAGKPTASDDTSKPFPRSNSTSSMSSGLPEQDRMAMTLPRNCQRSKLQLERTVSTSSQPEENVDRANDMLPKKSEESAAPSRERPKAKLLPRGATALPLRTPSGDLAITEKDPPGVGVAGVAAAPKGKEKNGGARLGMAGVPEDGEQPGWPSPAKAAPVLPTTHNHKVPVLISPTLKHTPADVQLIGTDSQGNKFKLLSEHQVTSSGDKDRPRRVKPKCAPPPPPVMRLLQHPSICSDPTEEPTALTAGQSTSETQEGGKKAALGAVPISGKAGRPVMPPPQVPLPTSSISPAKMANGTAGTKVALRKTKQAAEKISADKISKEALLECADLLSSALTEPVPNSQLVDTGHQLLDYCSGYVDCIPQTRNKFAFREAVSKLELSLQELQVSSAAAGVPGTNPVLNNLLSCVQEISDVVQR

## NC(=O)c1c(N)n(C(=O)c2ccc(F)cc2)c2ccccc12 [Compound 999, 2-amino-1-[(4-fluorophenyl)carbonyl]-1H-indole-3-carboxamide]
CK1δ
  selectivity for CK1δ when compared with other kinases: significant and selective inhibition for CK1δ
ABL2/ARG
  inhibition of ABL2/ARG: lower than 40%
CDK5/p25
  inhibition of CDK5/p25: lower than 40%
GSK3b
  inhibition of GSK3b: lower than 40%
HGK/MAP4K4
  inhibition of HGK/MAP4K4: lower than 40%
KDR/VEGFR2
  inhibition of KDR/VEGFR2: lower than 40%
LCK
  inhibition of LCK: lower than 40%
MSK1/RPS6KA5
  inhibition of MSK1/RPS6KA5: lower than 40%
PDK1/PDPK1
  inhibition of PDK1/PDPK1: lower than 40%
PIM3
  inhibition of PIM3: lower than 40%
PKCa
  inhibition of PKCa: lower than 40%
PKCb2
  inhibition of PKCb2: lower than 40%
ROCK1
  inhibition of ROCK1: lower than 40%
c-SRC
  inhibition of c-SRC: lower than 40%
CK1g1
  inhibition of CK1g1: lower than 40%
CK1g2
  inhibition of CK1g2: lower than 40%
CLK2
  inhibition of CLK2: lower than 40%
FGFR1
  inhibition of FGFR1: lower than 40%

## COc1cc(OC)c(C=C2C(O)=Nc3ccccc32)c(OC)c1 [IC261]
[1]
  levels of Tau phosphorylation at key pathogenic sites: reduced

## Nc1nccc(-c2c(-c3ccc(F)cc3)ncn2C2CCCCC2)n1 [PF670462, reference compound]
SH-SY5Y-TMHT cells
  effect on the cell viability of SH-SY5Y-TMHT cells: significant protective effect
[2]
  detectable level of pT231 in Tau protein: reduced the detectable level of pT231
[3]
  detectable levels of total Tau: marginally less total Tau
